In the NIST ThermoML archive (doi:10.1021/je1009619):

What was measured:
[1] = Liquid, Vibrating tube method
[2] = xn = mol fraction of the nth substance listed; settings: Liquid, Vibrating tube method, x1 = 1

CC1=CC[C@H]2C[C@@H]1C2(C)C [(S)-2-pinene]
mass density [kg/m3], [1]
Settings | 283.15 K | 298.15 K | 313.15 K | 328.15 K | 343.15 K | 358.15 K
20000 kPa | 880 | 868.8 | 858 | 846.7 | 835.9 | 825
25000 kPa | 883.2 | 872.1 | 861.3 | 850.4 | 839.7 | 829.2
30000 kPa | 886.3 | 875.3 | 864.7 | 854 | 843.8 | 833.3
35000 kPa | 889.4 | 878.6 | 867.9 | 857.5 | 847.7 | 837.4
40000 kPa | 892.5 | 881.9 | 871.3 | 861.1 | 851.4 | 841.5

C=C(C)[C@H]1CC=C(C)CC1 [(R)-1-methyl-4-(1-methylethenyl)cyclohexene]
mass density [kg/m3], [1]
Settings | 283.15 K | 298.15 K | 313.15 K | 328.15 K | 343.15 K | 358.15 K
20000 kPa | 862 | 851.5 | 841 | 830.5 | 820.1 | 810.2
25000 kPa | 864.9 | 854.5 | 844.2 | 833.8 | 823.7 | 813.9
30000 kPa | 867.7 | 857.6 | 847.2 | 837.2 | 827.3 | 817.6
35000 kPa | 870.4 | 860.9 | 850.3 | 840.4 | 831.1 | 821.3
40000 kPa | 873.3 | 863.4 | 853.3 | 843.8 | 834.6 | 824.8

C=C(C)[C@H]1CC=C(C)CC1 [(R)-1-methyl-4-(1-methylethenyl)cyclohexene] + CC1=CC[C@H]2C[C@@H]1C2(C)C
mass density [kg/m3], [2]
Settings | 283.15 K | 298.15 K | 313.15 K | 328.15 K | 343.15 K | 358.15 K
20000 kPa | 862 | 851.5 | 841 | 830.5 | 820.1 | 810.2
25000 kPa | 864.9 | 854.5 | 844.2 | 833.8 | 823.7 | 813.9
30000 kPa | 867.7 | 857.6 | 847.2 | 837.2 | 827.3 | 817.6
35000 kPa | 870.4 | 860.9 | 850.3 | 840.4 | 831.1 | 821.3
40000 kPa | 873.3 | 863.4 | 853.3 | 843.8 | 834.6 | 824.8
